# Molecular target: FXR (Homo sapiens (Human), UniProt Q96RI1)
# Experiment: transient human FXR/Gal4-luciferase reporter assay
# Format: cell-based
# Conditions: Gal4-hFXR fusion construct, HEK293 reporter cells; response relative to 8 μM GW-4064
# Method: A Gal4-hFXR fusion construct reporter system was used as the primary assay to characterize compound activity. A construct including 5 copies of the Gal4 promoter response element upstream of a firefly luciferase reporter cDNA was stably expressed in HEK293 cells. This reporter cell line was maintained in Dulbecco's Modified Eagle's medium (DMEM; Gibco) supplemented with 1% penicillin-streptomycin (P/S) solution, 500 μg/mL Zeocin and 10% charcoal/dextran-treated fetal bovine serum (cs-FBS) at 37° C. in a humidified 5% CO2 atmosphere. Another plasmid was constructed in which the human cytomegalovirus promoter in the pcDNA3.1 vector directs the expression of the cDNA encoding a fusion protein comprised of the DNA binding domain from the Gal4 transcription factor fused to the ligand binding domain from human FXR.
# The day prior to transfection, the reporter cells in culture are detached from the plate with trypsin and plated into a T75 flask at a sufficient density to achieve approximately 90% confluence the next morning. The transfection reagents are prepared by separately diluting 25 μg of the pcDNA3.1-Gal4-FXR plasmid into 1.87 mL of Opti-MEM (Thermo-Fisher), and 40 μL of Lipofectamine 2000 (Thermo-Fisher) into 1.87 mL of Opti-MEM, and then adding the diluted DNA solution into the diluted Lipofectamine 2000 solution and incubating at room temperature for 15-20 minutes. The mixture is further diluted with 10 mL of a solution comprised of DMEM, 10% cs-FBS, and 1% P/S immediately prior to transferring to the cells. The maintenance culture media is aspirated from the cells and the final transfection mixture is added before the cells are incubated overnight at 37° C. in a humidified 5% CO2 atmosphere. This protocol can be scaled up, and the transiently transfected cells can be cryopreserved in an assay-ready format.
# For compound testing, 100 nL of the compounds (serial dilutions in DMSO) are dispensed with an Echo acoustic dispenser (Labcyte) into the wells of a Corning/Costar clear bottom 384-well white plate. The transfected cells are harvested, counted, and diluted such that 10-25,000 cells in 25 μL are plated into each well of the 384-well compound assay plate. The compound-treated cells are incubated overnight at 37° C. in a humidified 5% CO2 atmosphere. The next morning 25 μL of Steady-Glo (Promega) are added to each well of the plate, the mixture is incubated for 15 min. with shaking, and luminescence is measured on an Envision (Perkin Elmer) plate reader.
# Sequence of FXR (Q96RI1 262-486): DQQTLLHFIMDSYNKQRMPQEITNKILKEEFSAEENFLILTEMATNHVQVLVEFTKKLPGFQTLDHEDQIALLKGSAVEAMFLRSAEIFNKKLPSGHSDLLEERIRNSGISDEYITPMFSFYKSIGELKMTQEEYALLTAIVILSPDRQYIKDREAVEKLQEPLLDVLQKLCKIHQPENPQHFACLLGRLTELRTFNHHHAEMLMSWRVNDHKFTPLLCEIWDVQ
row,Compound,EC50 [nM]
1,"COc1cc(-c2cccc(N(CC34CCC(c5nnc(C)s5)(CC3)CC4)C(=O)C3CCCC3)c2)ccn1 [Example 233, N-(3-(2-methoxypyridin-4-yl)phenyl)-N-((4-(5-methyl-1,3,4-thiadiazol-2-yl)bicyclo[2.2.2]octan-1-yl)methyl)cyclopentanecarboxamide]",1100
2,"COc1cc(-c2cccc(N(CC34CCC(c5nnc(C)s5)(CC3)CC4)C(=O)C3CC(F)(F)C3)c2)ccn1 [Example 234, 3,3-difluoro-N-(3-(2-methoxypyridin-4-yl)phenyl)-N-((4-(5-methyl-1,3,4-thiadiazol-2-yl)bicyclo[2.2.2]octan-1-yl)methyl)cyclobutane-1-carboxamide]",1760
3,"COc1cc(-c2cccc(N(CC34CCC(c5nnc(C)s5)(CC3)CC4)C(=O)C3CCC(F)(F)C3)c2)ccn1 (stereo not shown) [Example 235, 3,3-difluoro-N-(3-(2-methoxypyridin-4-yl)phenyl)-N-((4-(5-methyl-1,3,4-thiadiazol-2-yl)bicyclo[2.2.2]octan-1-yl)methyl)cyclopentane-1-carboxamide]",895
4,"COc1cc(-c2cccc(N(CC34CCC(c5nnc(C)s5)(CC3)CC4)C(=O)C3CC(O)(C(F)(F)F)C3)c2)ccn1 [Example 236, (1S,3S)-3-hydroxy-N-(3-(2-methoxypyridin-4-yl)phenyl)-N-((4-(5-methyl-1,3,4-thiadiazol-2-yl)bicyclo[2.2.2]octan-1-yl)methyl)-3-(trifluoromethyl)cyclobutane-1-carboxamide]",1540
5,"COc1cc(-c2cccc(N(CC34CCC(c5cc(C(F)(F)F)ccn5)(CC3)CC4)C(=O)C34CC(F)(C3)C4)c2)ccn1 [Example 241, 3-fluoro-N-(3-(2-methoxypyridin-4-yl)phenyl)-N-((4-(4-(trifluoromethyl)pyridin-2-yl)bicyclo[2.2.2]octan-1-yl)methyl)bicyclo[1.1.1]pentane-1-carboxamide]",1060
6,"COc1nccc(-c2cccc(N(CC34CCC(c5nc(C6CC6)no5)(CC3)CC4)C(=O)C3CC(F)(F)C3)c2)n1 [Example 243, N-((4-(3-cyclopropyl-1,2,4-oxadiazol-5-yl)bicyclo[2.2.2]octan-1-yl)methyl)-3,3-difluoro-N-(3-(2-methoxypyrimidin-4-yl)phenyl)cyclobutane-1-carboxamide]",428
7,"COc1nccc(-c2cccc(N(CC34CCC(c5nc(C6CC6)no5)(CC3)CC4)C(=O)C3CCC3)c2)n1 [Example 244, N-((4-(3-cyclopropyl-1,2,4-oxadiazol-5-yl)bicyclo[2.2.2]octan-1-yl)methyl)-N-(3-(2-methoxypyrimidin-4-yl)phenyl)cyclobutanecarboxamide]",576
8,"COc1nccc(-c2cccc(N(CC34CCC(c5nc(C6CC6)no5)(CC3)CC4)C(=O)C3CCC(F)(F)C3)c2)n1 (stereo not shown) [Example 245, N-((4-(3-cyclopropyl-1,2,4-oxadiazol-5-yl)bicyclo[2.2.2]octan-1-yl)methyl)-3,3-difluoro-N-(3-(2-methoxypyrimidin-4-yl)phenyl)cyclopentane-1-carboxamide]",538
9,"Cc1cc(-c2cccc(N(CC34CCC(c5nc(C6CC6)no5)(CC3)CC4)C(=O)C34CC(F)(C3)C4)c2)cnc1F [Example 247, N-((4-(3-cyclopropyl-1,2,4-oxadiazol-5-yl)bicyclo[2.2.2]octan-1-yl)methyl)-3-fluoro-N-(3-(6-fluoro-5-methylpyridin-3-yl)phenyl)bicyclo[1.1.1]pentane-1-carboxamide]",341

# Next, values leading:
row,EC50 [nM],Compound
1,16,"CC(C)(O)c1ccc(-c2cccc(N(CC34CCC(c5noc(C(C)(C)F)n5)(CC3)CC4)C(=O)NC3CCC(O)(C(F)(F)F)CC3)c2)cc1 (single isomer, unassigned) [Example 600, 1-((4-(5-(2-fluoropropan-2-yl)-1,2,4-oxadiazol-3-yl)bicyclo[2.2.2]octan-1-yl)methyl)-3-(4-hydroxy-4-(trifluoromethyl)cyclohexyl)-1-(4′-(2-hydroxypropan-2-yl)-[1,1′-biphenyl]-3-yl) urea]"
2,246,"CC(C)(O)c1ccc(-c2cccc(N(CC34CCC(c5noc(C(C)(C)F)n5)(CC3)CC4)C(=O)NC3CCC(O)(C(F)(F)F)CC3)c2)cc1 (single isomer, unassigned) [Example 601, 1-((4-(5-(2-fluoropropan-2-yl)-1,2,4-oxadiazol-3-yl)bicyclo[2.2.2]octan-1-yl)methyl)-3-(4-hydroxy-4-(trifluoromethyl)cyclohexyl)-1-(4′-(2-hydroxypropan-2-yl)-[1,1′-biphenyl]-3-yl) urea]"
3,92,"CC(F)(F)c1nc(C23CCC(CN(C(=O)C4CC(O)(C(F)(F)F)C4)c4cccc(-c5ccc(C(O)C(F)F)cc5)c4)(CC2)CC3)no1 (single isomer, unassigned) [Example 628 (first eluting isomer)]"
4,128,"CC(F)(F)c1nc(C23CCC(CN(C(=O)C4CC(O)(C(F)(F)F)C4)c4cccc(-c5ccc(C(O)C(F)F)cc5)c4)(CC2)CC3)no1 (single isomer, unassigned) [Example 628 (second eluting isomer)]"
5,988,"COc1cc(-c2cccc(N(CC34CCC(c5nnc(C)o5)(CC3)CC4)C(=O)C34CC(F)(C3)C4)c2)ccn1 [Example 230, 3-Fluoro-N-(3-(2-methoxypyridin-4-yl)phenyl)-N-((4-(5-methyl-1,3,4-oxadiazol-2-yl)bicyclo[2.2.2]octan-1-yl)methyl)bicyclo[1.1.1]pentane-1-carboxamide]"
6,592,"COc1cc(-c2cccc(N(CC34CCC(c5nnc(C)o5)(CC3)CC4)C(=O)C3CCC3)c2)ccn1 [Example 231, N-(3-(2-methoxypyridin-4-yl)phenyl)-N-((4-(5-methyl-1,3,4-oxadiazol-2-yl)bicyclo[2.2.2]octan-1-yl)methyl)cyclobutanecarboxamide]"
7,465,"COc1cc(-c2cccc(N(CC34CCC(c5nnc(C)s5)(CC3)CC4)C(=O)C34CC(F)(C3)C4)c2)ccn1 [Example 232, 3-Fluoro-N-(3-(2-methoxypyridin-4-yl)phenyl)-N-((4-(5-methyl-1,3,4-thiadiazol-2-yl)bicyclo[2.2.2]octan-1-yl)methyl)bicyclo[1.1.1]pentane-1-carboxamide]"
8,541,"COc1cc(-c2cccc(N(CC34CCC(c5ccnc(C)c5)(CC3)CC4)C(=O)C3CC(F)(F)C3)c2)ccn1 [Example 237, 3,3-Difluoro-N-(3-(2-methoxypyridin-4-yl)phenyl)-N-((4-(2-methylpyridin-4-yl)bicyclo[2.2.2]octan-1-yl)methyl)cyclobutane-1-carboxamide]"
9,517,"COc1cc(-c2cccc(N(CC34CCC(c5ccnc(C)c5)(CC3)CC4)C(=O)C34CC(F)(C3)C4)c2)ccn1 [Example 238, 3-Fluoro-N-(3-(2-methoxypyridin-4-yl)phenyl)-N-((4-(2-methylpyridin-4-yl)bicyclo[2.2.2]octan-1-yl)methyl)bicyclo[1.1.1]pentane-1-carboxamide]"
10,1320,"COc1cc(-c2cccc(N(CC34CCC(c5cccc(C)n5)(CC3)CC4)C(=O)C34CC(F)(C3)C4)c2)ccn1 [Example 239, 3-Fluoro-N-(3-(2-methoxypyridin-4-yl)phenyl)-N-((4-(6-methylpyridin-2-yl)bicyclo[2.2.2]octan-1-yl)methyl)bicyclo[1.1.1]pentane-1-carboxamide]"
11,2130,"COc1cc(-c2cccc(N(CC34CCC(c5cc(C(F)(F)F)ccn5)(CC3)CC4)C(=O)C3CCC3)c2)ccn1 [Example 240, N-(3-(2-methoxypyridin-4-yl)phenyl)-N-((4-(4-(trifluoromethyl)pyridin-2-yl)bicyclo[2.2.2]octan-1-yl)methyl)cyclobutanecarboxamide]"
12,276,"COc1nccc(-c2cccc(N(CC34CCC(c5nc(C6CC6)no5)(CC3)CC4)C(=O)C34CC(F)(C3)C4)c2)n1 [Example 242, N-((4-(3-cyclopropyl-1,2,4-oxadiazol-5-yl)bicyclo[2.2.2]octan-1-yl)methyl)-3-fluoro-N-(3-(2-methoxypyrimidin-4-yl)phenyl)bicyclo[1.1.1]pentane-1-carboxamide]"
13,66,"CS(=O)(=O)Nc1ccc(-c2cccc(N(CC34CCC(c5nc(C6CC6)no5)(CC3)CC4)C(=O)C34CC(F)(C3)C4)c2)cc1 [Example 246, N-((4-(3-cyclopropyl-1,2,4-oxadiazol-5-yl)bicyclo[2.2.2]octan-1-yl)methyl)-3-fluoro-N-(4′-(methylsulfonamido)-[1,1′-biphenyl]-3-yl)bicyclo[1.1.1]pentane-1-carboxamide]"
